# Results published in patent US20250052744A1, “Dyes and Uses Thereof” (The University of Liverpool, priority 2021, published 2025).
# Key:
# Experiment in all cases: Qualitative dye staining on agarose pads (EVOS M7000)
# Type in all cases: cell-based
# Set-up in all cases: key to Relative fluorescent intensity: Very high: If the cells looked twice as big in the fluorescent channel, it was marked as having “very high” relative fluorescent intensity; High: if the cells looked bigger in the fluorescent channel, it was marked as having “high” relative fluorescent intensity; Medium: If the cells looked almost the same size in the fluorescent channel and the bright field, it was marked as having “medium” relative fluorescent intensity; Low: If the cells looked smaller in the fluorescent channel as compared to the brightfield but still the whole cell was visible, it was marked as having “low” relative fluorescent intensity; Negligible: If only a few traces of a cell was visible in the fluorescent channel, it was marked as having “negligible” relative fluorescent intensity
# Conditions in all cases: DiSC3(5) 3 μM, SYBR Green I 10×, SYTO 13 3 μM, FM4-64 15 μM
# Streptococcus agalactiae = system: Streptococcus agalactiae
# Experimental: (§1) An overnight culture was prepared by inoculating a bacterial colony in approximately 5 ml of Urine and incubating the culture in an orbital shaker at 37° C.
# (§2) The following media and materials were utilised: Cation-adjusted Mueller Hinton broth (MHB); Phosphate Buffered Saline (PBS); Membrane staining dye—FM4-64 (1.5 mM); Live cell staining dye—DiSC3(5) (1 mM); DNA staining dye—SYBR Green (1000×); DNA staining dye—SYTO 13 (0.5 mM); Ultrapure Agarose; Parafilm; Glass slides and coverslips; Scalpel; and EVOS M7000 fluorescent microscope.
# (§3) A pre-cut parafilm or a coverslip was used as a guide and 22 mm×22 mm squares cut from parafilm. A square was cut out of the centre of the parafilm (approximately 10 mm×10 mm). The centre of the cut-out was discarded. Two parafilm gaskets were placed onto a cleaned glass slide. The glass slide was then placed on a dry bath set to 56° C. so that the parafilm adhered to the glass slide. The glass slide was then kept on the dry bath. Using a microwave, ultrapure agarose was dissolved in PBS at a concentration of 1.2%. The agarose solution was kept on a dry bath set at 56° C. 60 μl of the agarose solution was pipetted in the centre of the parafilm gaskets. A coverslip was then placed over the gaskets without applying pressure on the coverslip. The slide was then placed on a cool surface and left to solidify for 1-2 minutes. The coverslips were then gently lifted off the agarose pads.
# (§4) In a first Eppendorf, 15 μl of FM4-64 and 6 μl of SYTO 13 was added and in a second Eppendorf 10 μl of SYBR Green and 3 μl of DiSC3(5) was added. Depending on the bacterial growth in urine, an appropriate concentration of the bacterial culture was placed in the two Eppendorfs (final bacterial concentration 10^6 CFU/ml). MHB was added so as to achieve a final volume of 1 ml. Final concentrations of the dyes in the sample was as follows: DiSC3(5): 3 μM; SYBR Green I: 10× (originally supplied as 10,000×); SYTO 13: 3 μM; and FM4-64: 15 μM
# (§5) 4 μl of the contents of each Eppendorf were deposited on one agarose pad and the cells distributed across the agar surface by tilting the slide. The slide was left to dry for approximately 1 minute. A coverslip was then placed on top of the agarose pad. The slide was placed inside the microscope and incubated at 37° C. for 10 minutes. Using different light filters for each dye, an image of each pad at 40× magnification on an EVOS M7000 fluorescent microscope was captured. Eight images for each agarose pad was recorded (i.e. 8 each for brightfield and 2 fluorescent channels). For each agarose pad, 24 images were recorded. This corresponded to 48 images in total for each bacterial strain (2 agarose pads per strain). Table A below was used to take the images using the correct fluorescent channel and intensity (for imagining on any other instrument, the LED intensity will need to be normalised against the EVOS M7000).
# (§6) To qualitatively calculate the relative fluorescent intensities, cell size was compared between brightfield and the fluorescent channel for a given fluorescent dye. If the cells are very fluorescent, they will appear bigger in the fluorescent channel as compared to the bright field. For our qualitative measurements, if the cells looked bigger in the fluorescent channel, it was marked as having “high” relative fluorescent intensity. If the cells looked twice as big in the fluorescent channel, it was marked as having “very high” relative fluorescent intensity. If the cells looked almost the same size in the fluorescent channel and the bright field, it was marked as having “medium” relative fluorescent intensity. If the cells looked smaller in the fluorescent channel as compared to the brightfield but still the whole cell was visible, it was marked as having “low” relative fluorescent intensity. If only a few traces of a cell was visible in the fluorescent channel, it was marked as having “negligible” relative fluorescent intensity.
# Enterococcus faecalis = system: Enterococcus faecalis
# Experimental: as §1, §2, §3, §4, §5, §6
# Proteus mirabilis = system: Proteus mirabilis
# Experimental: as §1, §2, §3, §4, §5, §6
# [1] = Table 6 thresholds, Streptococcus agalactiae
# [2] = Table 7 commercial strain Streptococcus agalactiae NCTC 11239
# [3] = Table 8 sample Streptococcus agalactiae (081)
# [4] = Table 8 sample Streptococcus agalactiae (082)
# [5] = Table 8 sample Streptococcus agalactiae (083)
# [6] = Table 7 commercial strain Enterococcus faecalis NCTCT 12697
# [7] = Table 8 sample Enterococcus faecalis (001)
# [8] = Table 8 sample Enterococcus faecalis (002)
# [9] = Table 8 sample Enterococcus faecalis (003)
# [10] = Table 7 commercial strain Proteus mirabilis NCTC 10975
# [11] = Table 7 commercial strain Proteus mirabilis NCTC 11938
# [12] = Table 8 sample Proteus mirabilis (021)
# [13] = Table 8 sample Proteus mirabilis (022)
# [14] = Table 8 sample Proteus mirabilis (023)
Compound,Percentage of cells stained (Streptococcus agalactiae; [1]),Relative fluorescent intensity (Streptococcus agalactiae; [1]),Percentage of cells stained (Streptococcus agalactiae; [2]),Relative fluorescent intensity (Streptococcus agalactiae; [2]),Percentage of cells stained (Streptococcus agalactiae; [3]),Relative fluorescent intensity (Streptococcus agalactiae; [3]),Percentage of cells stained (Streptococcus agalactiae; [4]),Relative fluorescent intensity (Streptococcus agalactiae; [4]),Percentage of cells stained (Streptococcus agalactiae; [5]),Relative fluorescent intensity (Streptococcus agalactiae; [5]),Percentage of cells stained (Enterococcus faecalis; [6]),Relative fluorescent intensity (Enterococcus faecalis; [6]),Percentage of cells stained (Enterococcus faecalis; [7]),Relative fluorescent intensity (Enterococcus faecalis; [7]),Percentage of cells stained (Enterococcus faecalis; [8]),Relative fluorescent intensity (Enterococcus faecalis; [8]),Percentage of cells stained (Enterococcus faecalis; [9]),Relative fluorescent intensity (Enterococcus faecalis; [9]),Percentage of cells stained (Proteus mirabilis; [10]),Relative fluorescent intensity (Proteus mirabilis; [10]),further results
"CCCN1C(=CC=CC=Cc2sc3ccccc3[n+]2CCC)Sc2ccccc21.[I-] [DiSC3(5), 3,3′-Dipropylthiadicarbocyanine Iodide]",Almost all,low and Low,Almost all,Low,Almost all,Low,Almost all,Low,Almost all,Low,Half,Low,Half,Low,Half,Low,Half,Low,Almost all,Medium,Percentage of cells stained (Proteus mirabilis; [11]): Almost all; Relative fluorescent intensity (Proteus mirabilis; [11]): Low; Percentage of cells stained (Proteus mirabilis; [12]): Almost all; Relative fluorescent intensity (Proteus mirabilis; [12]): Low; Percentage of cells stained (Proteus mirabilis; [13]): Almost all; Relative fluorescent intensity (Proteus mirabilis; [13]): Medium; Percentage of cells stained (Proteus mirabilis; [14]): Almost all; Relative fluorescent intensity (Proteus mirabilis; [14]): Medium
"CCN(CC)c1ccc(C=CC=CC=Cc2cc[n+](CCC[N+](CC)(CC)CC)cc2)cc1.[Br-].[Br-] [FM 4-64, N-(3-Triethylammoniumpropyl)-4-(6-(4-(Diethylamino) Phenyl) Hexatrienyl) Pyridinium Dibromide]",Almost all,High,Almost all,High,Almost all,High,Almost all,High,Almost all,High,Almost all,Medium,Almost all,Medium,Almost all,Medium,Almost all,Medium,Few,Negligible,Percentage of cells stained (Proteus mirabilis; [11]): Few; Relative fluorescent intensity (Proteus mirabilis; [11]): Negligible; Percentage of cells stained (Proteus mirabilis; [12]): Few; Relative fluorescent intensity (Proteus mirabilis; [12]): Negligible; Percentage of cells stained (Proteus mirabilis; [13]): Few; Relative fluorescent intensity (Proteus mirabilis; [13]): Negligible; Percentage of cells stained (Proteus mirabilis; [14]): Few; Relative fluorescent intensity (Proteus mirabilis; [14]): Negligible
"CCCN(CCCN(C)C)c1cc(/C=C2/Sc3ccccc3N2C)c2ccccc2[n+]1-c1ccccc1 [SYBR Green I, N′,N′-dimethyl-N-[4-[(E)-(3-methyl-1,3-benzothiazol-2-ylidene)methyl]-1-phenylquinolin-1-ium-2-yl]-N-propylpropane-1,3-diamine]",Almost all,very high,Almost all,Very high,Almost all,Very high,Almost all,Very high,Almost all,Very high,Almost all,Medium,Almost all,Medium,Almost all,Medium,Almost all,Medium,Half,Low,"Relative fluorescent intensity (Streptococcus agalactiae; Table 6 thresholds, Streptococcus agalactiae, listed as SYBR Green): Very high; Percentage of cells stained (Proteus mirabilis; [11]): Half; Relative fluorescent intensity (Proteus mirabilis; [11]): Low; Percentage of cells stained (Proteus mirabilis; [12]): Half; Relative fluorescent intensity (Proteus mirabilis; [12]): Low; Percentage of cells stained (Proteus mirabilis; [13]): Half; Relative fluorescent intensity (Proteus mirabilis; [13]): Low; Percentage of cells stained (Proteus mirabilis; [14]): Half; Relative fluorescent intensity (Proteus mirabilis; [14]): Low"
